Experimental data from patent US20260232642A1, “RNA-BINDING MOLECULES WITH A SMALL CORE SCAFFOLD (R-SCORE) AND USES THEREOF” (Max-Planck-Gesellschaft zur Förderung der Wissenschaften …, priority 2022, published 2026).
“Also recorded” adds a separate entry of the source. Where two headings read alike, the source gives them in different places.

What was measured:
[1] = test system: precursor microRNA-17 hairpin (pre-miR-17 hp); assay: Differential scanning fluorimetry (DSF), pre-miR-17 hairpin; type: binding; details: 60 uM compound, 1 μM hairpin in PBS, Tm of compound minus Tm of DMSO control
Procedure: (§1) To measure the binding between compounds and precursor microRNA-21 hairpin (pre-miR-21 hp) or precursor microRNA-17 hairpin (pre-miR-17 hp), DSF was performed as previously described with modification (ACS Chem. Biol. 2017, 12, 2, 435-443). Precursor microRNA hairpin was dissolved in PBS and annealed by briefly heating to 95° C. for 3 min and slowly cooling to rt. Assay was performed in duplicates using white qPCR 8-strips (VWR) with a total volume of 10 μL in PBS. The total reaction consisted of 1 μM precursor microRNA hairpin, 1% test compound (DMSO dilution) and 2×SYBR GreenII (Thermo Fisher Scientific). Compounds were incubated with precursor microRNA hairpin at for 10 min at rt, then SYBR GreenII was added to each well, mixed and incubated 10 min at rt. The strips were spined and loaded to the RT-PCR detection system (BIO-RAD CFX Connect), the fluorescence intensity was obtained every 1° C. for 30 s in the range of 20° C. to 80° C.
(§2) The melting temperature (Tm) was determined by the maximum of the negative of the first derivative of the fluorescence vs temperature melting curves. The ΔTm was calculated by the Tm value of compound subtract the Tm value of the DMSO control.

[2] = test system: precursor microRNA-21 hairpin (pre-miR-21 hp); assay: Differential scanning fluorimetry (DSF), pre-miR-21 hairpin; type: binding; details: 60 uM compound, 1 μM hairpin in PBS, Tm of compound minus Tm of DMSO control
Procedure: as §1, §2

Ramos cells = assay: MTT assay, Ramos; type: cell-based, human; details: 72 h, Burkitt lymphoma cell line, read-out: Cell lines IC50 [μM] Ramos
Procedure: (§3) MAD-MB-231, MCF-7 and JAR cells were cultured in Dulbecco's modified Eagle's (DMEM) medium supplemented with 10% Fetal Bovine Serum (FBS), 100 u/mL penicillin-streptomycin. Jurkat, Molt-4 and Ramos cells were cultured in Roswell Park Memorial Institute (RPMI) 1640 medium with 10% Fetal Bovine Serum (FBS), 100 u/mL penicillin-streptomycin. All cell lines grown in an incubator with humidified 5% CO2 at 37° C.
(§4) Jurkat, Molt-4 and Ramos cells were collected and seeded into 96-well plates at a density of 8000-10000 per well and treated with compounds. MCF-7, MDA-MB-231 and JAR cells were collected and seeded into 96-well plates at a density of 2000-3000 per well and cultured overnight to adherent before treat with compounds. After exposed to increasing concentrations of compounds for 72 h, the cells in each well were mixed with 20 μL of 5 mg/ml MTT (3-(4,5-dimethylthiazol-2-yl)-2,5-diphenyltetrazolium bromide) for 2 h, then add 50 μL of 20% SDS/0.01 M HCl incubated overnight, and detected the absorbance at a wavelength of 570 nm.
(§5) Inhibition rate was calculated using the equation: […]
(§6) The IC50 values were calculated by using GraphPad Prism 9 software fitting to a dose-response inhibition equation.

Molt-4 cells = assay: MTT assay, Molt-4; type: cell-based, human; details: acute leukemia cell line, read-out: Cell lines IC50 [μM] Molt-4
Procedure: as §3, §4, §5, §6

Jurkat cells = assay: MTT assay, Jurkat; type: cell-based, human; details: 72 h, acute leukemia cell line, read-out: Cell lines IC50 [μM] Jurkat
Procedure: as §3, §4, §5, §6

MCF-7 cells = assay: MTT assay, MCF-7; type: cell-based, human; details: breast cancer cell line, read-out: Cell lines IC50 [μM] MCF-7
Procedure: as §3, §4, §5, §6

MDA-MB-231 cells [3] = assay: MTT assay, MDA-MB-231; type: cell-based, human; details: breast cancer cell line, read-out: Cell lines IC50 [μM] MDA-MB-231
Procedure: as §3, §4, §5, §6

JAR cells = assay: MTT assay, JAR; type: cell-based, human; details: 72 h, choriocarcinoma cell line, read-out: Cell lines IC50 [μM] JAR
Procedure: as §3, §4, §5, §6

MDA-MB-231 cells [4] = assay: Colony formation assay; type: cell-based, human; details: for antiproliferation activity against MDA-MB-231 cell line: 6 days, crystal violet, vs DMSO; for antiproliferation activity compared to other selected compounds: MDA-MB-231, ranking among A10, A11, B2, B5, B8, B9; for inhibition of MDA-MB-231 cell proliferation at 10 μM: concentration of 10 μM
Procedure: as §3
MDA-MB-231 cells were collected and seeded into 24-well plates with the density of 1000 cells per well and cultured overnight. The medium was exchanged and supplemented with different compounds and concentrations every three days. 6 days later, cells were washed with PBS and fixed by 4% paraformaldehyde solution. After 15 min fix, the paraformaldehyde solution was washed with PBS and was then stained with 0.1% (w/v) crystal violet. After 15 min, the cells were washed and photographed.

Compound | ΔTm (pre-miR-17 hp) @60 uM [° C.] [1] | ΔTm (pre-miR-21 hp) @60 uM [° C.] [2] | IC50 (Ramos cells; Homo sapiens, Ramos) | IC50 (Molt-4 cells; Homo sapiens, MOLT-4, 72 h) | IC50 (Jurkat cells; Homo sapiens, Jurkat) | IC50 (MCF-7 cells; Homo sapiens, MCF7, 72 h) | IC50 (MDA-MB-231 cells [3]; Homo sapiens, MDA-MB-231, 72 h) | IC50 (JAR cells; Homo sapiens) | antiproliferation activity against MDA-MB-231 cell line (MDA-MB-231 cells [4]) | antiproliferation activity compared to other selected compounds (MDA-MB-231 cells [4]) | inhibition of MDA-MB-231 cell proliferation at 10 μM (MDA-MB-231 cells [4]) | IC50 (Ramos cells) | IC50 (Molt-4 cells; 72 h) | IC50 (Jurkat cells) | IC50 (MCF-7 cells; 72 h) | IC50 (MDA-MB-231 cells [3]; 72 h) | IC50 (JAR cells)
CNc1nc(N2CC(c3ccc(-c4ccc(C(F)(F)F)cc4)cc3)C2C#N)nc2ccccc12 (centres unmarked) [Compound B5, 1-(4-(methylamino)quinazolin-2-yl)-3-(4′-(trifluoromethyl)-[1,1′-biphenyl]-4-yl) azetidine-2-carbonitrile] | 0 °C | 0 °C | 2.8 µM | 8.42 µM | 5.9 µM | 5.61 µM | 6.95 µM | 1.44 µM | can inhibit MDA-MB-231 cells proliferation; also recorded: exhibited antiproliferation activity against MDA-MB-231 cell line in a dose-dependent manner | most potent antiproliferation activity | fully inhibited |  |  |  |  |  | 
C=CCN1C(C#N)C(c2ccc(-c3ccc(C(F)(F)F)cc3)cc2)C1Cn1cc(-c2ccccn2)nn1 (centres unmarked) [Compound A10, 1-allyl-4-((4-(pyridin-2-yl)-1H-1,2,3-triazol-1-yl)methyl)-3-(4′-(trifluoromethyl)-[1,1′-biphenyl]-4-yl) azetidine-2-carbonitrile] | 0 °C | 0 °C | 8.87 µM | 1.6 µM | 7.51 µM | > 20 µM | > 20 µM | > 20 µM | can inhibit MDA-MB-231 cells proliferation; also recorded: exhibited antiproliferation activity against MDA-MB-231 cell line in a dose-dependent manner |  |  |  |  |  |  |  | 
CNc1nc(N2CC(c3ccc(-c4c(C)noc4C)cc3)C2C#N)nc2ccccc12 (centres unmarked) [Compound B2, 3-(4-(3,5-dimethylisoxazol-4-yl)phenyl)-1-(4-(methylamino)quinazolin-2-yl) azetidine-2-carbonitrile] |  |  |  |  |  |  |  |  | can inhibit MDA-MB-231 cells proliferation; also recorded: exhibited antiproliferation activity against MDA-MB-231 cell line in a dose-dependent manner | better antiproliferation ability; also recorded: most potent antiproliferation activity | fully inhibited | 3.03 µM | 4.67 µM | 4.49 µM |  |  | 
CNc1nc(N2CC(c3ccc(-c4ccc5nc[nH]c5c4)cc3)C2C#N)nc2ccccc12 (centres unmarked) [Compound B9, 3-(4-(1H-benzo[d]imidazol-6-yl)phenyl)-1-(4-(methylamino)quinazolin-2-yl) azetidine-2-carbonitrile] | −1 °C | −1 °C |  |  |  |  |  |  | can inhibit MDA-MB-231 cells proliferation; also recorded: exhibited antiproliferation activity against MDA-MB-231 cell line in a dose-dependent manner |  |  | 5.54 µM | 4.14 µM | 3.17 µM | 1.78 µM | 4.12 µM | 1.82 µM
